Experimental findings from the METLIN SMRT retention time set (Domingo-Almenara et al. 2019) are described below.

SMILES strings stand for the structures.

This data set can be described thus: gradient 5% acetonitrile 3 min, to 50% in 2 min, to 85% in 15 min, held 3 min, 100 µL/min. The note with it: column: Zorbax Extend-C18 2.1 x 50 mm; eluents: water / acetonitrile, 0.1% formic acid. The method in brief:
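The mobile phases were water and acetonitrile, each with 0.1% formic acid, pumped at 100 μL/min through a Zorbax Extend-C18 column (2.1 × 50 mm, 1.8 μm). Pure standards were injected as mixtures of ~100 molecules and detected by a quadrupole time-of-flight mass spectrometer in positive and negative ionization mode. Retention time came from computationally picked adduct peaks, each inspected by hand.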
`COCC(=O)N(CC(=O)N1CCc2sccc2C1COc1ccc(C(C)C)cc1)C1CC1` (stereo unspecified) showed an RP-LC retention time of 947 s. For `COc1ccc(-c2noc(-c3nn(-c4ccc(F)c(F)c4)ccc3=O)n2)cc1` the value was 914 s; for `Cc1cc(=O)n(CC(=O)NCc2ccc(F)cc2)c(N2CCCCC2)n1`, 656 s; for `NC(=O)CSc1nnc(N2CCN(C(=O)c3ccccc3[N+](=O)[O-])CC2)s1`, 567 s. `CCN(c1ccccc1)S(=O)(=O)c1ccc(C(=O)Nc2cc(C)no2)cc1` gave an RP-LC retention time of 882 s. As for `CC(C)c1cccc(NC(=O)C2CCCN(c3cn[nH]c(=O)c3)C2)c1` (stereo unspecified), the RP-LC retention time amounted to 692 s.

`O=C1C=C(Nc2cccnc2)c2ccccc2C1=O` yielded an RP-LC retention time of 594 s. In the case of `CCOC(=O)CCc1c(C)nn(-c2cc(N3CCCC3)ncn2)c1C`, the RP-LC retention time was 868 s.

For `COc1ccc(CN2C=C(C(=O)OCc3ccccc3C)C(C)=NS2(=O)=O)cc1`, the RP-LC retention time is 1140 s. For `O=C(NC1CC1)c1ccccc1OCC1CCN(C(=O)c2ccc(F)cc2)CC1`, the RP-LC retention time stood at 805 s.

Take `Cc1ccc2nsnc2c1NC(=O)Cn1c(-c2cncs2)nc2ccccc21`: the RP-LC retention time was 682 s.

`CCn1c(N2CCCC(C(=O)NCCOC)C2)cc(=O)n(C)c1=O` (stereo unspecified) had an RP-LC retention time of 646 s. `COc1ccccc1NC(=O)C(C)n1nc(C)c2nn(-c3ccccc3)c(-n3cccc3)c2c1=O` (stereo unspecified) returned an RP-LC retention time of 1130 s. Consider `Cc1ccccc1NC(=O)N1CCC(c2cc3n(n2)CCCN(C)C3=O)CC1`, for which the RP-LC retention time is 660 s. `COc1cccc2sc(NC(=O)Cc3ccc(Cl)s3)nc12` gave an RP-LC retention time of 923 s. The compound `CC1=NS(=O)(=O)N(Cc2ccccc2)C=C1C(=O)OCc1nc(-c2ccc(C)cc2)no1` gave an RP-LC retention time of 1110 s. In turn, `COc1ccccc1CNC(=O)C1CCCN(c2nnc3ccc(Cl)cn23)C1` (stereo unspecified) returned an RP-LC retention time of 683 s. As for `CC(C)CNC(=O)CCc1nc2ccccc2n(CC(=O)NCc2ccccc2Br)c1=O`, the RP-LC retention time is 847 s. In turn, `CN(CC1(C)CCOCC1)C(=O)c1ccc2cc[nH]c2c1` came in with an RP-LC retention time of 696 s. In turn, `CCCn1cc(CCNC(=O)Nc2ccc(C)c(Cl)c2)c2cccnc21` yielded an RP-LC retention time of 884 s.

The compound `COCCN1CN=C(Nc2nc(C)c3cccc(C)c3n2)NC1` had an RP-LC retention time of 644 s.

In turn, `CCOC(=O)c1ccc(NC(=O)c2cn3c4c(ccc(Cl)c4c2=O)OCC3)cc1` showed an RP-LC retention time of 1040 s.

Consider `O=C(NCCn1c(=O)n(Cc2ccccc2)c2cccnc21)C1CCCC1`, for which the RP-LC retention time stood at 760 s. As for `CC(C)CN1Cc2ccccc2-n2ccnc2C12CCN(C(=O)C1CC1)CC2`, the RP-LC retention time came out at 648 s. Consider `CS(=O)(=O)N1CCC(C(=O)Nc2ccc3cn[nH]c3c2)CC1`, for which the RP-LC retention time was determined as 588 s. Consider `COc1ccc(NC(=O)N2CCC3(CC2)NC(=O)c2ccccc2O3)c(OC)c1`, for which the RP-LC retention time came out at 728 s. The figure for `CN1c2ccc(F)cc2C(=O)NC12CCN(C(=O)NCc1ccc(F)cc1)CC2` is 750 s; for `Cc1c(Cl)cccc1NC(=O)NCC1CCOCC1` it is 720 s; for `Cc1noc(-c2cccn2Cc2c(F)cccc2Cl)n1` it is 1130 s.

`CCCNC(=O)C1CCN(c2ccc(SCC(=O)Nc3cc(F)ccc3Cl)nn2)CC1` came in with an RP-LC retention time of 724 s. The compound `CC(=O)Nc1ccc2c(c1)CN(C(=O)c1ccccc1Cl)C(C(=O)N1CCCC1)C2` (stereo unspecified) displayed an RP-LC retention time of 657 s. Compound `CCN1C(=O)NC(c2ccc(Cl)cc2)C2=C1CN(CCC(=O)NCCOC)C2=O` (stereo unspecified) showed an RP-LC retention time of 599 s.

Turning to `CCC(=O)N1CCc2cc(N3CC(C(=O)Nc4cc(C)ccc4C)CC3=O)ccc21` (stereo unspecified), the RP-LC retention time came out at 790 s.

Compound `Cc1sc2ccn(C)c(=O)c2c1C(=O)NC1CCN(Cc2ccccc2)CC1` returned an RP-LC retention time of 1030 s. Take `CCOC(=O)Cc1ccc(NC(=O)N2CCN(c3nc4ccccc4n3C)CC2)cc1`: the RP-LC retention time came to 656 s. The compound `CNC(=O)[C@@H]1C[C@H](Oc2cccnc2)CN1C(=O)c1ccc2ncccc2c1` registered an RP-LC retention time of 510 s. Compound `O=C(CN1CN(c2ccccc2)c2ncccc2S1(=O)=O)Nc1cccc(Cl)c1` returned an RP-LC retention time of 983 s. `COC(=O)CC1=CC(SCC(=O)NC2CCc3ccccc32)=Nc2ccccc2N1` (stereo unspecified): the RP-LC retention time came out at 547 s. `Cc1sc(NC(=O)c2cccs2)nc1-c1ccc2c(c1)NC(=O)CO2` returned an RP-LC retention time of 842 s.

`CS(=O)(=O)N1CCC(C(=O)Nc2ccccc2Br)Oc2ccccc21` (stereo unspecified) came in with an RP-LC retention time of 996 s. In turn, `Cc1ccc2nc(-c3ccc(O)cc3)c(Nc3ccc4c(c3)OCO4)n2c1` had an RP-LC retention time of 633 s. The figure for `CCOC(=O)c1[nH]c(C)c(CCC(=O)Nc2cc(OC)cc(OC)c2)c1C` is 880 s; for `CC(=O)N1CCCc2cc(S(=O)(=O)CCC(=O)Nc3ccc(C)c(C)c3)ccc21` it is 784 s. As for `CCN(CC)C(C)CN1c2ccccc2Sc2ccccc21` (stereo unspecified), the RP-LC retention time was found to be 813 s. For `CC(=O)Nc1ccc(SCCCC(=O)N2CCc3ccccc32)nn1` the value was 706 s; for `CCN(CC)c1ncc2c(n1)CCC(C(=O)Nc1ccc(OC)c(F)c1)C2` (stereo unspecified), 726 s; for `Cc1sc(NC(=O)CC(C)C)nc1-c1ccc2c(c1)N(C)C(=O)CO2`, 910 s. For `Clc1ccc(CSc2nnc(-c3ccc(Br)cc3)o2)cc1`, the RP-LC retention time turned out to be 1270 s. For `O=C(NC1CCCC1)c1nnc(-c2ccc(S(=O)(=O)N3CCOCC3)cc2)o1` the value was 804 s; for `COc1ccc(S(=O)(=O)Nc2cc(-c3cn4ccccc4n3)ccc2C)cc1C`, 682 s. `COc1ccc(C(=O)N2C[C@@H](Oc3cccnc3)C[C@H]2C(=O)NC2CC2)c(OC)n1` registered an RP-LC retention time of 602 s.

On to `Cc1csc(-c2csc(S(=O)(=O)N3CCCCCC3)c2)n1`, for which the RP-LC retention time stood at 1090 s.

Regarding `COc1ccc2[nH]cc(CCNC(=O)c3ccc(F)cc3)c2c1`, the RP-LC retention time was determined as 778 s. For `Cc1ccc(F)c(NC(=O)C2CCc3nc(N4CCOCC4)ncc3C2)c1` (stereo unspecified) the value was 735 s; for `CCn1c(=O)c(=O)n(CC(=O)NC2CCCCCCC2)c2cccnc21`, 806 s.

As to `Cc1cccc(-c2noc(-c3nn(CC(=O)NC4CCCC4)c4ccccc34)n2)c1`, the RP-LC retention time was 1180 s. On to `Fc1ccc(Cl)cc1-c1nc(-c2ccc(-n3cccn3)nc2)no1`, for which the RP-LC retention time is 1290 s. The compound `O=C(Nc1ccccc1)N1CCc2[nH]cnc2C1c1ccccn1` (stereo unspecified) had an RP-LC retention time of 598 s. Regarding `CCCNC(=O)C1CCN(c2ccc(SCC(=O)Nc3ccc(C(C)C)cc3)nn2)CC1`, the RP-LC retention time is 657 s.

In turn, `O=C(Cn1c(=O)n(CCc2ccccc2)c(=O)c2ncccc21)Nc1ccc2c(c1)OCO2` gave an RP-LC retention time of 734 s. For `CCn1c(CCNC(=O)c2ccc(C)c(F)c2)nc2cccnc21` the value was 676 s; for `Cc1[nH]c(C(=O)N2CCCC(C(=O)N3CCN(C4CCCCC4)CC3)C2)c(C)c1C(=O)OC(C)C` (stereo unspecified), 645 s; for `O=C(Nc1nc(-c2ccco2)cs1)C1COCC(=O)N1Cc1ccccc1` (stereo unspecified), 729 s. As to `COc1cccc(CNC(=O)NCCc2nc3cccnc3n2C2CCCC2)c1`, the RP-LC retention time is 684 s. As to `O=C(C1=COCCO1)N1CCN(c2ccccc2)CC1`, the RP-LC retention time worked out at 694 s. For `Nc1c2c(nc3c1CCC3)CCCC2` the value was 624 s; for `COCCC(=O)Nc1ccc2c(c1)CCC(=O)N2C`, 609 s. For `O=C(Nc1ccc2c(c1)OCO2)NC1CCCC(OC(=O)Nc2ccc(F)cc2)C1` (stereo unspecified) the value was 825 s; for `O=C(CCc1ccccc1)Nc1nc(-c2cccc3ccccc23)cs1`, 1170 s; for `Cc1cc(C)n(Cc2nc(-c3ccc(NC(=O)CC(C)(C)C)cc3)oc2C)n1`, 939 s.

In turn, `COc1ccc(C)cc1NC(=O)C(=O)NCCN1CCN(c2ccccc2F)CC1` returned an RP-LC retention time of 614 s.

For `Cc1ccc(-c2[nH]ncc2CN2CC(F)(F)C[C@H]2CN2CCOCC2)cc1C`, the RP-LC retention time is 654 s. For `CCN1C(=O)C(CC(=O)NC2CCCCC2)Sc2ncccc21` (stereo unspecified), the RP-LC retention time came to 743 s. The figure for `Cn1nccc1C(=O)N1CCN(C(=O)c2cc(-c3ccncc3)n[nH]2)CC1` is 523 s; for `CCc1nc(OCC(=O)Nc2ccc(Cl)cc2C(F)(F)F)c2ccccc2n1` it is 942 s; for `CCc1cc(=O)n(CC(=O)Nc2ccc(Br)cc2F)c(N2CCOCC2)n1` it is 853 s. Compound `CCCS(=O)(=O)c1nc2ccc(NS(=O)(=O)Cc3cc(F)cc(F)c3)cc2s1` showed an RP-LC retention time of 938 s. The compound `O=C(NCCCn1cccn1)C1CCc2nc(N3CCCC3)ncc2C1` (stereo unspecified) returned an RP-LC retention time of 575 s. The compound `COc1ccc(OC)c(NC(=O)Nc2c(-c3cccc(C)c3)nc3ccccn23)c1` showed an RP-LC retention time of 696 s. The compound `CCN1c2ccc(F)cc2C(=O)NC12CCN(C(=O)Cc1ccc(Cl)cc1)CC2` returned an RP-LC retention time of 848 s.

`O=C(NC1CN2CCC1CC2)c1cc2ccoc2cn1` (stereo unspecified) returned an RP-LC retention time of 620 s.
